Where a SMILES comes first, the peptide text is derived from it. [ ]: non-standard residue; d: D form. The star is where a group is joined. Dolaproine = CO[C@@H]([C@@H]1CCCN1)[C@@H](C)C(=O)O; Dil = CC[C@H](C)[C@H](NC)[C@@H](CC(=O)O)OC; X1 = C[C@@H](N*)[C@@H](O)c1ccccc1; NMeV = CN[C@H](C(=O)O)C(C)C
B1: AFC (conjugate)
heavy: EVQLQQSGPDLVKPGASMKISCKASGYSFTDYTMHWVKQSHGKNFEWIGLINPYNDGTTYNQKFKGKATLTVDKSSSTAYMELLSLTSEDSAVYYCASLDYWGQGTSVTVSSAKTTPPSVYPLAPGSAAQTNSMVTLGCLVKGYFPEPVTVTWNSGSLSSGVHTFPAVLQSDLYTLSSSVTVPSSTWPSETVTCNVAHPASSTKVDKKIVPRDCGCKPCICTVPEVSSVFIFPPKPKDVLTITLTPKVTCVVVDISKDDPEVQFSWFVDDVEVHTAQTQPREEQFNSTFRSVSELPIMHQDWLNGKEFKCRVNSAAFPAPIEKTISKTKGRPKAPQVYTIPPPKEQMAKDKVSLTCMITDFFPEDITVEWQWNGQPAENYKNTQPIMDTDGSYFVYSKLNVQKSNWEAGNTFTCSVLHEGLHNHHTEKSLSHSPGKGGGGGMKLKKIKSVLKKIKSVLKKIKSVLKKIKSVVGER
light: DVVMTQTPLSLPVSLGDQASISCRSSQSLVHSSGNTYLHWYLQKPGQSPKLLIYKVSNRFSGVPDRFSGSGSGTDFTLKISRVEAEDLGVYFCSQSTHVPYTFGGGTKLEIKRADAAPTVSIFPPSSEQLTSGGASVVCFLNNFYPKDINVKWKIDGSERQNGVLNSWTDQDSKDSTYSMSSTLTLTKDEYERHNSYTCEATHKTSTSPIVKSFNRNEC
peptide: MKLEEIVSELEEIVSELEEIVKELEEIVYEVGER

What was measured:
SKBR-3 = assay: in vitro toxicity of αHER2-P3 based ADC; conditions: SKBR-3, 72 h, up to 10 μg/ml ADC (equivalent to 100 ng/ml MMAE)
Experimental: (§6) The toxicity of the new ADC was investigated in vitro in the HER2-positive cell lines: SKBR-3 and A549. We treated the cells with up to 10 μg/ml of ADC (equivalent to 100 ng/ml of MMAE) along with native antibodies and free drug at equivalent concentrations.

A549 = assay: in vitro toxicity of αHER2-P3 based ADC; conditions: A549, 72 h, up to 10 μg/ml ADC (equivalent to 100 ng/ml MMAE)
Experimental: as §6

NHLF = assay: in vitro cytotoxicity (MTT); assay type: cell-based, human
Experimental: (§1) We utilized two different incubation methods.
(§2) We then incubated the human cell lines with ADC, and equivalent concentrations of MMAE and native Ab for both 48 hours and 72 hours, the results of which can be seen in FIG. 13A-13E. We expected the results to correlate with the GPR87 expression we observed by flow cytometry. For the normal cell lines, this was the case. As detailed in FIG. 14, the line that was most sensitive to the ADC were the NHLFs, followed by the BEAS-2Bs, and the line with the lowest GPR87 expression, the HUVECs, had the highest IC50 after 72 hours. However, both the NSCLC cell lines had relatively high IC50s given the GPR87 expression status of these lines.
(§3) Standard cytotoxicity assays, like the MTT assays ran here, measure or rather, approximate the cell number at an end point and compare to control untreated cells. Effectively what is measured is a comparison between growth rates. When comparing the efficacy of a drug, particularly a mitotic inhibitor, among different cell lines, division rate differences due to biology, media additives, or seeding density can have a dramatic effect on the IC50, an issue brought up by Hafner et al. They reported with both modeling and in vitro assays how using the IC50 as a metric can actually mask the true mechanism of a drug, for example the microtubule inhibitor paclitaxel. […] GR values indicate whether a drug inhibits growth (0<GR<1), is cytostatic (GR=0) or cytotoxic (GR<0). To calculate this parameter, one needs cell count data for at least two different time points and compares experimental growth rates to the growth rate of control cells. […] Consequently, we reviewed the data at our two time points to perform a similar analysis. We plated at the same seeding density for both the 48 and 72 hour time points. As MTT is an endpoint assay rather than a kinetic assay like MTS, we can use MTT signal as a proxy for cell count. […] Therefore, we excluded this cell line from our analysis. We are technically assessing the effect the ADC or equivalent MMAE has on the growth rate of cells at 60 hours, as we are measuring at t=x±delta t, with x being 60 and delta t being 12 hours. Ideally, we would assess an earlier time point or even multiple time points. […] (FIGS. 19A-19D). Conversely, both NCI-H520 and NCI-H358 are cytotoxic (GR<0) at higher concentrations of ADC at this time point. […] While the GR50 data is still not in agreement with GPR87 expression, it does indicate that this type of analysis at other, earlier, time points is useful in assessing the dynamics of ADC and MMAE cytotoxicity in these cell lines.

BEAS-2B = assay: in vitro cytotoxicity (MTT); assay type: cell-based, human
Experimental: as §1, §2, §3

NIH-3T3 = assay: in vitro cytotoxicity, negative control line; conditions: NIH-3T3, up to 10 μg/ml ADC or equivalent concentrations, 72 hours
Experimental: We incubated NIH-3T3s with up to 10 μg/ml of ADC (67 nM, equivalent to 96 ng/ml of MMAE) along with the native antibody and MMAE alone at equivalent concentrations.

NCI-H520 [1] = assay: preliminary toxicity study of MMAE in NSCLC line; assay type: cell-based, human
Text: (§4) There are various linker chemistries for ADCs in use clinically and being investigated, as described in Chapter One. A common motif in ADCs is the valine-citrulline dipeptide which is recognized by human Cathepsin B, a lysosomal enzyme. The full motif typically used is valine-citrulline-p-aminobenzylcarbamate-monomethyl auristin E (vc-MMAE). […] The vc-MMAE structure is used in several FDA approved ADCs (brentuximab vedotin, polatuzumab vedotin, enfortumab vedotin) which target both hematologic and solid tumors.

NCI-H226 = assay: preliminary toxicity study of MMAE in NSCLC line; assay type: cell-based, human
Text: as §4

NCI-H520 [2] = assay: in vitro cytotoxicity (MTT); assay type: cell-based, human; conditions: NCI-H520
Experimental: as §1, §2
In comparison, NCI-H358 and NCI-H520 see approximately a 4-fold or 2-fold decrease in IC50, respectively, between the two time points. On the other hand, the NCI-H520 line has almost a 10-fold increase in MMAE IC50 at 72 hours compared to 48 hours. The results are likely because the cell lines are different sizes and morphologies and therefore are at different confluencies when plated at the same number of cells per well and are therefore likely to be in different parts of their log growth phase during treatment. For example, the NSCLC lines are typically at very low confluency at a plating density of 5,000 cells per well and may not reach log phase growth until later in the assay. As MMAE affects actively dividing cells, this will affect the results of the assay. While 72 hours was not the optimized end time point for all five cell lines, in order to have a standardized cell plating density, and therefore same ADC:cell ratio, going past 72 hours for some of the cell lines would lead to confluency or death in untreated control cells, which would also confound results. Thus, we incubated the two NSCLC lines for longer periods of time to allow the control cells to become more confluent by the assay endpoint, and to see how this would affect the ADC IC50.
as §3

NCI-H358 = assay: internalization of AFC, confocal colocalization with EEA1 / LAMP1; assay type: cell-based, human; conditions: NCI-H358, 3 or 10 μg/ml, up to 4 hours
Experimental: (§5) The GPR87 receptor is a G-protein coupled receptor (GPCR), a class of receptors which are activated by an extracellular ligand, initiating activation of associated intracellular G proteins for downstream signaling. Following activation, GPCRs are often internalized and recycled to prevent prolonged stimulation. […] Therefore, we wanted to confirm the uptake of our αGPR87 AFC in the two GPR87 high expressing NSCLC cell lines, NCI-H358 and NCI-H520. We cocultured the cells with 3 μg/ml of AFC for either 30 minutes or 1 hour and fixed and permeabilized the cells before immunofluorescently staining for either the early endosomal marker EEA1 or the lysosomal marker LAMP1. Shown in FIG. 11 are the images from these studies with the AFC signal, either the EEA1 or LAMP1 signal, and DAPI. The merged images are shown as well as the AFC and either EEA1 or LAMP1 signals merged, with colocalization. […] To investigate this further, we increased the concentration of AFC to 10 μg/ml and increased the incubation times to 1, 2, and 4 hours. […] By 2 hours, the AFC now is highly colocalized with the lysosomes and further colocalizes by the 4-hour timepoint while also showing less of a membranous staining pattern. From these analyses, we can determine that the AFC is indeed internalized by the human NSCLC cancer cell lines NCI-H520 and NCI-H358, albeit with different apparent kinetics.

NCI-H520 [3] = assay: as above; assay type: cell-based, human; conditions: NCI-H520, 3 μg/ml, 30 minutes and 1 hour
Experimental: as §5

[4] = preliminary AFC clearance and biodistribution in PDX tumor bearing NSG mice, ELISA; assay type: in vivo; conditions: 10 mg/kg
Experimental: We had access to a stage four mucinous lung adenocarcinoma patient derived xenograft (PDX) model. We assessed the GPR87 positivity in the tumor and found it to be positive for GPR87. (FIG. 19A) We ran a preliminary study using the AFC to determine whether the AFC would traffic to the tumor in vivo. Twenty-four hours following injection in the tail at 2.5 mg/kg, the tail, tumor, and major organs were collected and imaged with an IVIS system. […] (FIG. 19B) We moved forward with a preliminary study of the AFC in PDX tumor bearing NSG mice. Four mice were injected with 10 mg/kg of AFC once the tumor reached approximately 200-300 mm^3 and blood was drawn at 4 hours, 3 days, and 2 weeks. The mice were intended to be kept for 2 weeks, but one animal had to be euthanized at day 3 due to tumor size. At the 2-week time point, we euthanized the other animals and harvested the organs. The plasma and organ AFC levels were analyzed by a custom ELISA which detects intact AFC, as described in Chapter Four. The results are seen in FIG. 20A. […] We also ran an ELISA with an anti-mouse IgG secondary to determine the total Ab concentrations and assess whether the AFC was being cleared or was not stable (FIG. 20B). The Ab readout detected a higher concentration of Ab than AFC, however, the general trend of clearance is maintained. The concentration even by 3 days is markedly low for our AFC. Whereas we detect <1 μg/ml of AFC at 3 days by either AFC or Ab readout, levels above 10 μg/ml have been reported with similar ADC DAR ratio (˜2) and dose (10 mg/kg). However we are utilizing NSG mice to facilitate the PDX model. It has been reported that NSG mice have enhanced clearance rates of both antibodies and ADCs. However, even in comparison to the clearance rates in NSG mice noted by Li et al., AFC clearance is fast.
We also analyzed the organs at the 3 day and 2 week time point with an ELISA (FIGS. 20C-20D).

[5] = system: stage four mucinous lung adenocarcinoma patient derived xenograft (PDX); assay: preliminary in vivo trafficking of AFC, IVIS imaging of PDX tumor bearing mouse; conditions: 24 hours after tail injection at 2.5 mg/kg
Experimental: We had access to a stage four mucinous lung adenocarcinoma patient derived xenograft (PDX) model. We assessed the GPR87 positivity in the tumor and found it to be positive for GPR87. (FIG. 19A) We ran a preliminary study using the AFC to determine whether the AFC would traffic to the tumor in vivo. Twenty-four hours following injection in the tail at 2.5 mg/kg, the tail, tumor, and major organs were collected and imaged with an IVIS system. […] (FIG. 19B) We moved forward with a preliminary study of the AFC in PDX tumor bearing NSG mice. Four mice were injected with 10 mg/kg of AFC once the tumor reached approximately 200-300 mm^3 and blood was drawn at 4 hours, 3 days, and 2 weeks. The mice were intended to be kept for 2 weeks, but one animal had to be euthanized at day 3 due to tumor size. At the 2-week time point, we euthanized the other animals and harvested the organs. The plasma and organ AFC levels were analyzed by a custom ELISA which detects intact AFC, as described in Chapter Four. The results are seen in FIG. 20A. […] The Ab readout detected a higher concentration of Ab than AFC, however, the general trend of clearance is maintained. […] Whereas we detect <1 μg/ml of AFC at 3 days by either AFC or Ab readout, levels above 10 μg/ml have been reported with similar ADC DAR ratio (˜2) and dose (10 mg/kg). […]

[6] = AFC concentration in blood plasma of Balb/c mice, ELISA; assay type: in vivo; conditions: 10 mg/kg, samples at 1 hour, 7 and 14 days
Experimental: To make sure that the coiled-coil has no significant effect on antibody clearance, we performed a preliminary study of AFC concentration in blood plasma (FIG. 33). 10 mg/kg AFC was injected into two Balb/c mice. Blood samples were collected at 1 hour, 7 and 14 days and examined for AFC concentration by ELISA assay.

| Molecule | cell viability (SKBR-3) [%] | cell viability (A549) [%] | GR50 (NHLF) | GR50 (BEAS-2B) | cytotoxicity (NIH-3T3) | IC50 (NCI-H520 [1]) [pM] | IC50 (NCI-H226) [pM] | increase in IC50 at 72 hours compared to 48 hours (NCI-H520 [2]) [fold] | internalization (NCI-H358) | internalization (NCI-H520 [3]) | plasma concentration at 3 days ([4]; by either AFC or Ab readout) [ng/mL] | concentration in tumor and organs ([4]; compared to liver, kidney, spleen, heart and lung, preliminary) | clearance ([4]; plasma at 4 hours, 3 days, 2 weeks) | fluorescence of tail, tumor and major organs [5] | AFC concentration in plasma [6] |
| --- | --- | --- | --- | --- | --- | --- | --- | --- | --- | --- | --- | --- | --- | --- | --- |
| CC[C@H](C)[C@@H]([C@@H](CC(=O)N1CCC[C@H]1[C@H](OC)[C@@H](C)C(=O)N[C@H](C)[C@@H](O)c1ccccc1)OC)N(C)C(=O)[C@@H](NC(=O)[C@@H](NC)C(C)C)C(C)C [MMAE, Monomethyl auristatin E, reference compound] (H-[NMeV]V[Dil][Dolaproine]-X1) | 20 | 20 | do not reach that value | cannot be calculated | highly toxic | 42 | 294 | ~10 | – | – | – | – | – | – | – |
| B1 | – | – | – | – | – | – | – | – | internalized | internalized | < 1000 | highest in the tumor at 3 days and at 2 weeks | rapidly cleared | tail (injection site) and tumor both showed high fluorescence, with little fluorescence in the major organs | A small amount of AFC was detected in plasma after 7 days |

— US12281161B2, “Polypeptides and uses thereof” (TRUSTEES OF BOSTON UNIVERSITY, priority 2021, dated 2025)
